Key:
[1] = tested on: STAT1 S727 phosphorylation; assay: STAT1 S727 phosphorylation by immunoblotting in HCT116 colon carcinoma cells; format: cell-based, human; settings: for inhibition of STAT1 S727 phosphorylation: HCT116, 24 hr treatment, different concentrations
Procedure: (§1) STAT1 S727 phosphorylation was analyzed by immunoblotting using the following primary antibodies: Phospho-Stat1 (Ser727) (D3B7) Rabbit mAb #8826 (used at 1:1000 dilution) and Rabbit Ab #9177 (used at 1:500 dilution) from Cell Signaling Technology (Danvers, Mass.), and total-STAT1 Stat1 p84/p91 Antibody (M-22): sc-592 from Santa Cruz Biotechnology (Dallas, Tex.), used at 1:500 dilution. As a loading control an antibody against a housekeeping protein GAPDH (6C5 mouse monoclonal antibody from Abcam), was used at 1:1000 dilution.
In the experiments shown in FIG. 2, this analysis was continued in HCT116 human colon carcinoma cells.

[2] = tested on: TNFα-induced CXCL1 and CXCL2 transcription; assay: Induction of NFκB-regulated genes by TNFα in HEK-293 cells; format: cell-based, human
[3] = tested on: proteins bound at NFκB-regulated and housekeeping genes; assay: Chromatin immunoprecipitation (ChIP) with quantitative real-time PCR in 293 cells; format: cell-based, human
Excerpt: Sonicated chromatin was immunoprecipitated with the antibodies against the indicated proteins. The ChIP preps were used for quantitative real-time PCR amplification of different segments of the indicated genes (X-axes show the positions of the tested segments relative to transcription start sites). The results of this analysis for all four conditions (blue, control; red, Senexin A; green, TNFα; purple, TNFα plus Senexin A) are shown, with the genomic positions of the PCR primers diagrammed at the top of the figure.
(Burke et al., 2014) have recently shown that STAT1 cooperates with NFκB in the induction of CXCL1 and CXCL2 transcription by IL-1β in rat insulinoma cells. We have therefore tested whether TNFα-induced CXCL1 and CXCL2 transcription in HEK-293 cells involves STAT1 and whether pSTAT1 in this system is affected by CDK8/19 inhibition. This analysis was conducted by chromatin immunoprecipitation (ChIP) of 293 cells that were pre-treated with 5 μM CDK8/19 inhibitor Senexin A (Porter et al., 2012) or carrier for one hour, at which point either TNFα at 10 ng/ml or carrier was added for 30 min. Sonicated chromatin was extracted as described (Galbraith et al., 2013) and immunoprecipitated with the antibodies against the indicated proteins. […] The results of this analysis for all four conditions (untreated, Senexin A, TNFα, and TNFα plus Senexin A) are shown in FIG. 5, with the genomic positions of the tested ChIP primers diagrammed at the top of the figure.

[4] = tested on: STAT1 S727 phosphorylation; assay: STAT1 S727 phosphorylation in whole-cell protein extracts of 293 cells; format: cell-based, human; settings: 5 μM
Procedure: (§2) Results are shown for three biological replicates.
as §1

[5] = tested on: Pol II CTD phosphorylation; assay: Immunoblotting of total Pol II CTD phosphorylation in whole-cell lysates of 293 cells; format: cell-based, human; settings: 293 whole-cell lysates, same conditions as the ChIP
Excerpt: as §2

[6] = tested on: STAT1 S727 phosphorylation; assay: STAT1 S727 phosphorylation by immunoblotting in LNCaP-LN3 derivatives (DV and DK); format: cell-based, human; settings: treated for 5 hrs
Procedure: as §1
In the experiment shown in FIG. 1, human LNCaP-LN3 cells, an in vivo-derived metastatic variant of LNCaP prostate cancer cells were used. We have compared STAT1 S727 phosphorylation in two derivatives of LNCaP-LN3, one with shRNA knockdown of both CDK8 and CDK19 (CDK8 shRNA was expressed from lentiviral vector PHLB carrying blasticidin resistance marker; CDK19 shRNA was expressed from lentiviral vector pLKO.1 carrying puromycin resistance marker) (DK, double knockdown), and in control cells transduced with insert-free PHLB and pLK0.1 vectors (DV, double vector). […] The immunoblotting for phospho-STAT1 S727 (pSTAT1) and total STAT1 (tSTAT1) is shown in FIG. 1A, and image quantitation for the ratio of pSTAT1/tSTAT1 is shown in FIG. 1B. […]

[7] = tested on: STAT1 in complexes with CDK8; assay: CDK8 immunoprecipitation from HCT116 cells, immunoblotted for total STAT1 or phospho-STAT1 S727; format: cell-based, human; settings: HCT116, 24 hrs, 10 μM
Excerpt: To determine whether the effect of CDK8/19 inhibitors on STAT1 S727 phosphorylation involved direct interaction between CDK8 and STAT1, we have asked if STAT1 and CDK8 would co-immunoprecipitate, and if so, whether CDK8/19 kinase inhibition would affect STAT1 phosphorylation in complexes with CDK8.

[8] = tested on: STAT1 S727 phosphorylation; assay: STAT1 S727 phosphorylation by immunoblotting in MCF7 breast cancer cells; format: cell-based, human
Procedure: as §1
(§3) FIG. 3 illustrates the inhibition of basal STAT1 S727 phosphorylation by CDK8/19 inhibitors in human breast cancer cell lines.

[9] = tested on: STAT1 S727 phosphorylation; assay: STAT1 S727 phosphorylation by immunoblotting in SKBR3 breast cancer cells; format: cell-based, human; settings: SKBR3, 1 μM or 5 μM, after 30 min of treatment
Procedure: as §1, §3

[10] = tested on: STAT1 S727 phosphorylation; assay: STAT1 S727 phosphorylation by immunoblotting in MDA-MB-361 breast cancer cells; format: cell-based, human; settings: MDA-MB-361, 6 hr, 5 μM
Procedure: as §1, §3

[11] = tested on: STAT1 S727 phosphorylation; assay: In situ immunofluorescence staining for phospho-STAT1 S727 and total STAT1 in MCF7 cells; format: cell-based, human
[12] = tested on: STAT1 S727 phosphorylation; assay: In situ immunofluorescence staining for phospho-STAT1 S727 and total STAT1 in HCT116 cells; format: cell-based, human
[13] = tested on: STAT1 S727 phosphorylation; settings: Bancerek et al., 2013; cited from earlier work
[14] = 5 μM pre-treatment one hour, TNFα 10 ng/ml 30 min

Compound: CN(C)C1CC23CCC4(O2)C(=CCC2(C)C(c5ccc6ccncc6c5)=CCC24)C=C3C(O)C1O (stereo not drawn) [16-didehydro-cortistatin A]
- inhibition of STAT1 S727 phosphorylation [1]: inhibited STAT1 S727 phosphorylation similarly to Senexin B

Compound: N#Cc1ccc2ncnc(NCCc3ccccc3)c2c1 [Senexin A]
- regulation of housekeeping genes HGPRT and GAPDH [2]: not regulated
- inhibition of TNFα induction of CXCL1 ([2]; 5 μM, TNFα 10 ng/ml): ~10 fold
- inhibition of TNFα induction of CXCL2 ([2]; 5 μM, TNFα 10 ng/ml): ~10 fold
- inhibition of TNFα induction of NFKBIA ([2]; 5 μM, TNFα 10 ng/ml): ~1.4 fold
- Pol II recruitment and distribution along the regulated genes [3, 14]: moderate effect
- recruitment of p65 subunit of NFκB and CDK8 to promoters of NFκB-regulated genes [3, 14]: little or no effect
- phospho-STAT1 S727 (pSTAT1) at CXCL1 ([3]; 5 μM, TNFα): a strong effect
- phospho-STAT1 S727 (pSTAT1) at NFKBIA ([3]; 5 μM, TNFα): a weaker effect
- phospho-STAT1 S727 (pSTAT1) at the housekeeping genes ([3]; 5 μM, TNFα): little or no effect
- Pol II CTD phosphorylation (S5P, S2P) at the strongly regulated genes ([3]; 5 μM, TNFα, CXCL1 and CXCL2): strongly inhibited
- association of pSTAT1 with any of the tested genes ([3]; absence of TNFα, total of 90 min treatment): unaffected
- STAT1 S727 phosphorylation in whole-cell protein extracts [4]: strongly inhibited
- treatment time after which the effect on STAT1 S727 phosphorylation is noticeable [4]: 15 min
- treatment time after which the effect on STAT1 S727 phosphorylation is very strong [4]: 1 h
- total Pol II CTD phosphorylation [5]: not significantly affected

Compound: CN1CCN(C(=O)c2ccc3cc(CCNc4ncnc5ccc(C#N)cc45)ccc3c2)CC1 [Senexin B]
- concentration from which STAT1 S727 phosphorylation plateaus at a low level ([6]; LNCaP-LN3 DV and DK cells): 1 µM
- concentration from which basal STAT1 S727 phosphorylation is decreased (lowest concentration) ([6]; LNCaP-LN3 cells, pSTAT1/tSTAT1 ratio): 16 nM
- treatment time after which inhibition of STAT1 S727 phosphorylation is noticeable ([1]; HCT116, 5 μM): 15 min
- treatment time after which inhibition of STAT1 S727 phosphorylation is very strong ([1]; HCT116, 5 μM): 1 h
- inhibition of STAT1 S727 phosphorylation [1]: concentration-dependent inhibition
- binding of total STAT1 to CDK8 (co-immunoprecipitation) [7]: does not affect the binding of total STAT1
- phospho-STAT1 S727 in CDK8 immunoprecipitate [7]: inhibits its phosphorylation at S727
- inhibition of STAT1 S727 phosphorylation, concentration series ([8]; MCF7, 24 hr treatment, indicated concentrations): concentration-dependent inhibition
- inhibition of STAT1 S727 phosphorylation ([8]; MCF7, 24 hr, 5 μM, two antibodies (#8826 and #9177)): inhibition of STAT1 S727 phosphorylation
- inhibition of STAT1 S727 phosphorylation, time course [9]: strong inhibition
- inhibition of STAT1 S727 phosphorylation [10]: inhibits STAT1 S727 phosphorylation
- staining with phospho-STAT1 S727 antibody in situ [11]: inhibition of STAT1 S727 phosphorylation
- staining with the antibody against total STAT1 [11]: no apparent effect
- staining with phospho-STAT1 S727 antibody in situ [12]: inhibition of STAT1 S727 phosphorylation
- staining with the antibody against total STAT1 [12]: no apparent effect

Compound: CN1CC[C@H](c2c(O)cc(O)c3c(=O)cc(-c4ccccc4Cl)oc23)[C@H](O)C1 [flavopiridol]
- enhancement of STAT1 S727 phosphorylation by LPS or anisomycin [13]: failed to inhibit

Compound: Cortistatin A
- inhibition of STAT1 S727 phosphorylation [1]: concentration-dependent inhibition
